According to patent publication US11313861B2, “Method of evaluating hepatic glucose uptake capacity” (OTSUKA PHARMACEUTICAL CO., LTD., priority 2016, dated 2022):

Assays:
[1] = rat, in vivo, 10 mg/kg
Description: To unfasted ZDF fatty rats (18 weeks old; n=6), ZDF lean rats (18 weeks old; n=6) and SD rats (14 weeks old; n=3) 10 mg/kg of ^13C6-glucose was orally administered. Expired air samples were collected over time before and after the administration and the Δ^13C values of the samples were measured by GC/MS. Three days after the oral administration, 10 mg/kg of ^13C6-glucose was intravenously administered to the same unfasted rats. Expired air samples were collected over time before and after the administration and the Δ^13C values of the samples were measured by GC/MS.
The AUCs of the Δ^13C values were calculated for the oral administration and the intravenous administration, and the difference of the AUCs was calculated. The difference is shown in FIG. 5 as the amount of hepatic glucose uptake (hepatic extraction). […] The mutation is homozygous in the ZDF fatty rats.

[2] = Blood ^13C6-glucose level and expired air Δ^13C after oral ^13C6-glucose, 6-week-old ZDF fatty vs ZDF lean rats; assay type: in vivo, rat
Description: (§1) To fasted ZDF fatty rats (6 weeks old; n=4) and ZDF lean rats (6 weeks old; n=4) 10 mg/kg of ^13C6-glucose (13C6-Glucose [D-GLUCOSE⋅(U-13C6, 99%)], Cambridge Isotope Laboratories, Inc. (Andover, Mass., USA)) was orally administered. Blood samples and expired air samples were collected over time before and after the administration. The Δ^13C values of the obtained expired air samples were measured by GC/MS. The ^13C6-glucose levels in the blood samples were measured by LC/MS/MS. The fasting blood glucose levels were measured before the glucose administration.

[3] = Blood ^13C6-glucose level and expired air Δ^13C after oral ^13C6-glucose, 7-week-old ZDF fatty vs ZDF lean rats; assay type: in vivo, rat
Description: as §1, with “(7” for “(6”, “^13C6-glucose” for “^13C6-glucose (13C6-Glucose [D-GLUCOSE⋅(U-13C6, 99%)], Cambridge Isotope Laboratories, Inc. (Andover, Mass., USA))”

[4] = rat, in vivo, po, 10 mg/kg
Description: To unfasted rats (ZDF lean, ZDF fatty, SD, each n=12) 10 mg/kg of ^13C6-glucose was orally administered. […] The blood ^13C6-glucose level was measured by LC/MS/MS.

[5] = Blood ^13C6-glucose level and expired air Δ^13C after oral ^13C6-glucose, iLIRKO vs IRflox mice; assay type: in vivo, mouse
From the text: iLIRKO mouse (inducible liver-specific insulin receptor KO mice) can be used as a model for stage B of pre-onset diabetes, the stage of decreased hepatic extraction ratio, because knock out of insulin receptors can be induced only in the liver (Michael M D, et al., Loss of insulin signaling in hepatocytes leads to severe insulin resistance and progressive hepatic dysfunction. Mol Cell 2000; 6 (1): 87-97). To iLIRKO mice (2 to 3 months old, n=5) and IRflox mice (2 to 3 months old, n=5, control) 10 mg/kg of ^13C6-glucose was orally administered. Blood samples and expired air samples were collected over time before and after the administration. The Δ^13C values of the obtained expired air samples were measured by GC/MS. The ^13C6-glucose levels in the blood samples were measured by LC/MS/MS.

OC[C@H]1OC(O)[C@H](O)[C@@H](O)[C@@H]1O (stereo partly drawn) [^13C6-glucose, D-GLUCOSE⋅(U-13C6, 99%)]
amount of hepatic glucose uptake (hepatic extraction), difference of the AUCs of Δ^13C between oral and intravenous administration [1]: high in order of the SD rats, the ZDF lean rats, and the ZDF fatty rats | blood ^13C6 glucose levels ([2]; fasted 6-week-old ZDF fatty rats vs ZDF lean rats, 10 mg/kg oral, LC/MS/MS): remained lower than those of the ZDF Lean rats | Δ^13C values of the expired air samples ([2]; rat, in vivo, po, 10 mg/kg): kept higher than those of the ZDF lean rats | blood ^13C6 glucose levels ([3]; fasted 7-week-old ZDF fatty rats vs ZDF lean rats, 10 mg/kg oral, LC/MS/MS): remained higher than those of the ZDF Lean rats | Δ^13C values of the expired air samples ([3]; rat, in vivo, po, 10 mg/kg): kept higher than those of the ZDF lean rats | hepatic extraction ratio of ^13C6-glucose [4]: high in order of the SD rats, the ZDF lean rats, and the ZDF fatty rats | blood ^13C6 glucose levels ([5]; iLIRKO mice vs IRflox mice, 10 mg/kg oral, LC/MS/MS): kept higher than those of IRflox mice | Δ^13C values of the expired air samples ([5]; mouse, in vivo, po, 10 mg/kg): kept higher than those of IRflox mice
